This is an account of results in patent US9657305B2, “Synthesis of sialic acid in plants” (Medicago, Inc., priority 2006, dated 2017).

In series [1] the test system is tobacco BY2 cells. The series is described as follows: Toxicity of Neu5Ac on tobacco BY2 cells (cell viability, propidium iodide and fluorescein diacetate). The series is classed as cell-based, Nicotiana tabacum. To be noted: 10 mM Neu5Ac, 48 h period.
Series [2] can be described thus: Stability of the recombinant enzymes expressed in the plant cytosol. The settings on record: tobacco BY2 cells, alfalfa plants or transient expression. The text has this:
The synthesis of Neu5Ac in presence of pyruvate and ManNAc was also observed.

A short description of series [3]: Synthase activity of recombinant Neu5Ac lyase (formation of Neu5Ac from D-ManNAc and pyruvate, GC-EI MS). The series is classed as biochemical. The settings on record: pH 7, […]° C. The method, then: Soluble enzyme activities were assayed by incubating cell extracts with PEP 4 mM, NADH 4 mM, NaHCO3 20 mM and DTE 10 mM. Oxydation of NADH was measured by a diminution of absorbance at 340 nm after 10 min. […] Cells extracts were incubated 2 h at 37° C. in Solution B (100 mM Tris-HCl buffer, pH=7.4 and 10 mM MgCl2) containing proteinase inhibitors (pepstatine 1 μg·mL^−1, E64 1 μg·mL^1 and PMSF 1 mM) and Neu5Ac 40 mM. […] Cells extracts were incubated 2 h at 37° C. in Solution B (100 mM […], pH=7.4 and 10 mM MgCl2) containing proteinase inhibitors (pepstatine 1 μg·mL^−1, E64 1 μg·mL^1 and PMSF 1 mM) and ManNAc 20 mM and pyruvate 40 mM. Synthase activity of NeuB2 was assayed by measuring the formation of Neu5Ac after incubating transformants cells extracts with ManNAc and PEP. Cells extracts were incubated 2 h at 37° C. in Solution B (100 mM Tris-HCl buffer, pH=7.4 and 10 mM MgCl2) containing proteinase inhibitors (pepstatine 1 μg·mL^−1, E64 1 μg·mL^−1 and PMSF 1 mM) and ManNAc 10 mM and PEP 10 mM. […]
For the enzymatic assays, the reaction mixtures were first submitted to a purification step on C18 Seppack cartridges. […] The quantification of sugar was done by integration of peaks and determination of the corresponding molar values using response factors established with standard monosaccharides. […]

Series [4] concerns tobacco BY2 cells. The series is described as follows: In planta activity of Neu5Ac lyase: feeding transformed tobacco BY2 cells with Neu5Ac, GC of cytosolic monosaccharides. The settings on record: BY2 cells fed 10 mM Neu5Ac, 48 h. Format: cell-based, Nicotiana tabacum.
Procedure: After 2 d, BY2 cells were washed with BY2 medium without Neu5Ac or ManNAc and harvested. The cells were heated at 70° C. for 15 min in 70% ethanol to inactivate enzymes and then ground in a potter homogenizer. The homogenate was washed two times with 70% ethanol at 70° C. The remaining pellet and the supernatant were considered as representatives of the cell walls and the cytosolic free monosaccharides respectively. Monosaccharides of the supernatant fraction were then analysed by gas chromatography
The formation of D-ManNAc was determined by analysing cytosolic monosaccharides by GC after a 48 h period at temperature ranging from 23° C. to 37° C.

Regarding `CC(=O)N[C@H]1[C@H]([C@H](O)[C@H](O)CO)OC(O)(C(=O)O)C[C@@H]1O` (stereo partly shown) [Neu5Ac, N-acetyl neuraminic acid], in the series on tobacco BY2 cells [1], the “toxicity of Neu5Ac on tobacco BY2 cells (cell viability)” value was “no toxic effects were observed”.

Turning to “Neu5Ac lyase: Neu5Ac lyase from Escherichia coli K1 (accession number D00067) expressed in tobacco BY2 cells”, the “degradation of recombinant protein in the cytosol” value in series [2] was “No degradation”. For the same compound, in series [3], the “ability to synthesise Neu5Ac” value was “able to synthesise Neu5Ac”. Also, the “increase in D-ManNAc content at 37° C. compared to 23° C.” value in the series with tobacco BY2 cells [4] worked out at 25 fold.
